Where a name gives a salt, the structure may show the parent alone.
Key:
[1] = biological target: T1, human alpha2A receptors (Homo sapiens, UniProt P08913); experiment: cell-based
T1 sequence (P08913 1-465): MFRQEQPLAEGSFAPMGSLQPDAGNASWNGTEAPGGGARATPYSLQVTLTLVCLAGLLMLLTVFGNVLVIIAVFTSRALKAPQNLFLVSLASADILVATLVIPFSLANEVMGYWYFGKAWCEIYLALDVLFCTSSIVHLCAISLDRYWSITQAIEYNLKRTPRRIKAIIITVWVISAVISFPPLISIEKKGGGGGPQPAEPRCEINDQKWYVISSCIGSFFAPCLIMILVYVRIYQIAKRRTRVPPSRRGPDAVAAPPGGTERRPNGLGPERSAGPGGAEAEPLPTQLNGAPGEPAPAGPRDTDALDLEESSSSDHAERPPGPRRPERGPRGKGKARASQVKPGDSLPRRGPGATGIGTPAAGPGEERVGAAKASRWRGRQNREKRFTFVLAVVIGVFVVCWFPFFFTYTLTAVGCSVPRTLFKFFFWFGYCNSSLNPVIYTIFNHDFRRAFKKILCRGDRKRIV
Protocol: (§1) Experiment 1: Determination of alpha2A and alpha2C Antagonistic Activity In Vitro
(§2) The growth medium was removed and the cells were incubated with the test compounds and the FLIPR Calcium 6 Assay reagent (Molecular Devices, CA, USA) for 2 h at 37° C. in dark. The test compounds (concentrations in cells 100 pM-10 μM) were dissolved in Probenecid-Ringer consisting of 150 mM NaCl, 3 mM KCl, 1.2 mM MgCl2, 1 mM CaCl2, 5 mM glucose, 20 mM HEPES and 2.5 mM probenecid (pH 7.4 adjusted with 1.0 M NaOH). […] All experiments were performed at 37° C. For agonism measurements the test compounds dissolved in Probenecid-Ringer were applied by FLIPR Tetra at 15 s time point. In order to determine antagonism, the cells were stimulated either with 100 nM adrenaline or noradrenaline and the test compounds were added to the cells 2 h before the experiment with the FLIPR Calcium 6 Assay reagent. […] Typically, there were four replicates at each concentration and six different dose levels. […] The minimum fluorescence value subtracted from the maximum value for each well was used in the calculations. ScreenWorks version 4.0 software was used for analyzing the results. Fitting of the antagonist dose-response results was performed with the free Hill equation and the IC50 values were fitted with IDBS XE software using model 200: y=(A+(B/(1+((x/C)̂D)))), where A is the curve maximum, B the curve minimum and C equals the EC50 value. D is slope factor (Hill). Kb was calculated with the Cheng-Prusoff equation Kb=A/((B/C)+1), where A is the IC50 of antagonist, B the concentration of agonist and C the EC50 of the agonist.

[2] = biological target: T2, human alpha2C receptors (Homo sapiens, UniProt P18825); experiment: Determination of alpha2C antagonistic activity in vitro (FLIPR calcium assay); conditions: for Kb: Alpha 2C Adrenaline Kb, Kb calculated from IC50 with the Cheng-Prusoff equation, adrenaline as agonist, CHO cells, human alpha2C
T2 sequence (P18825 1-462): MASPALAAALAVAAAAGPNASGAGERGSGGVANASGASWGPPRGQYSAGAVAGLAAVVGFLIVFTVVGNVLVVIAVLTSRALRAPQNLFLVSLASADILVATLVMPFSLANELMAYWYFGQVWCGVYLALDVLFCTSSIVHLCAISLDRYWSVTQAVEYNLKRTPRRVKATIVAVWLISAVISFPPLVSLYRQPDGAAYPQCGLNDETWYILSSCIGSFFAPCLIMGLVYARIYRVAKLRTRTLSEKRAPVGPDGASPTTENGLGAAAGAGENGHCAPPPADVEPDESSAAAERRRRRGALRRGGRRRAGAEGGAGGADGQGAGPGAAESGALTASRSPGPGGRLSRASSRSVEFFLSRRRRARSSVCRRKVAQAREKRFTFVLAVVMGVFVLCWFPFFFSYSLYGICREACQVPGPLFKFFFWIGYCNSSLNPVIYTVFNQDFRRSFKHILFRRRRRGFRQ
Protocol: as §1, §2

Compound	IC50 [1] [nM]	Kb [1] [nM]	IC50 [2] [nM]	Kb [2] [nM]
O=C1C2CC2C(=O)N1[C@H]1CCCN(C[C@H]2COc3ccccc3O2)C1 (stereo partly drawn) [example 95, 3-((S)-1-(((S)-2,3-Dihydrobenzo[b][1,4]dioxin-2-yl)methyl)piperidin-3-yl)-3-azabicyclo[3.1.0]hexane-2,4-dione]	9440	424	0.433	0.044
CC1C(=O)N([C@H]2CCCN(C[C@H]3COc4ccccc4O3)C2)C(=O)N1C (stereo partly drawn) [example 115, 3-((S)-1-(((S)-2,3-Dihydrobenzo[b][1,4]dioxin-2-yl)methyl)-piperidin-3-yl)-1,5-dimethylimidazolidine-2,4-dione]	> 10000	> 449	2.08	0.21
C[C@]1(c2ccccc2)CCN([C@H]2CCCN(C[C@H]3COc4ccccc4O3)C2)C1=O [example 14, (R)-1-((S)-1-(((S)-2,3-Dihydrobenzo[b][1,4]dioxin-2-yl)methyl)piperidin-3-yl)-3-methyl-3-phenylpyrrolidin-2-one]	5840	262	0.048	0.005
CSc1ncc2c(n1)CN([C@H]1CCCN(C[C@H]3COc4ccccc4O3)C1)C2=O [example 22, 6-((S)-1-(((S)-2,3-Dihydrobenzo[b][1,4]dioxin-2-yl)methyl)piperidin-3-yl)-2-(methylthio)-6,7-dihydro-5H-pyrrolo[3,4-d]pyrimidin-5-one]	> 10000	> 449	< 0.01	< 0.001
CN1C(=O)C(=O)N([C@H]2CCCN(C[C@H]3COc4ccccc4O3)C2)C1=O [example 138, 1-((S)-1-(((S)-2,3-Dihydrobenzo[b][1,4]dioxin-2-yl)methyl)piperidin-3-yl)-3-methylimidazolidine-2,4,5-trione]	> 10000	> 449	4.35	0.438
O=C1c2ccc(F)cc2C(=O)N1[C@H]1CCCN(C[C@H]2COc3ccccc3O2)C1 [example 62, 2-((S)-1-(((S)-2,3-Dihydrobenzo[b][1,4]dioxin-2-yl)methyl)piperidin-3-yl)-5-fluoroisoindoline-1,3-dione]	> 10000	> 449	< 0.1	< 0.01
O=C1NC(c2ccccc2)C(=O)N1[C@H]1CCCN(C[C@H]2COc3ccccc3O2)C1 (stereo partly drawn) [example 114, 3-((S)-1-(((S)-2,3-Dihydrobenzo[b][1,4]dioxin-2-yl)methyl)piperidin-3-yl)-5-phenylimidazolidine-2,4-dione]	2340	105	< 0.1	< 0.01
CC1CCN([C@H]2CCCN(C[C@H]3COc4ccccc4O3)C2)C1=O (stereo partly drawn) [example 97, 1-((S)-1-(((S)-2,3-Dihydrobenzo[b][1,4]dioxin-2-yl)methyl)-piperidin-3-yl)-3-methylpyrrolidin-2-one]	> 10000	> 449	1	0.1
CC1(C)CCN([C@H]2CCCN(C[C@H]3COc4ccccc4O3)C2)S1(=O)=O [example 162, 2-((S)-1-(((S)-2,3-Dihydrobenzo[b][1,4]dioxin-2-yl)methyl)piperidin-3-yl)-5,5-dimethylisothiazolidine 1,1-dioxide]	> 10000	> 449	6.13	0.62
Clc1ccc2ncn([C@H]3CCCN(C[C@H]4COc5ccccc5O4)C3)c2c1 [example 89, 6-Chloro-1-((S)-1-(((S)-2,3-dihydrobenzo[b][1,4]dioxin-2-yl)methyl)piperidin-3-yl)-1H-benzo[d]imidazole]	9460	425	< 0.1	< 0.01
O=C1CN(Cc2ccccc2)C(=O)N1[C@H]1CCCN(C[C@H]2COc3ccccc3O2)C1 [example 118, 1-Benzyl-3-((S)-1-(((S)-2,3-dihydrobenzo[b][1,4]dioxin-2-yl)methyl)-piperidin-3-yl)imidazolidine-2,4-dione]	1120	50	< 0.1	< 0.01
O=C1c2cccc(F)c2C(=O)N1[C@H]1CCCN(C[C@H]2COc3ccccc3O2)C1 [example 63, 2-((S)-1-(((S)-2,3-Dihydrobenzo[b][1,4]dioxin-2-yl)methyl)piperidin-3-yl)-4-fluoroisoindoline-1,3-dione hydrochloride]	> 10000	> 449	< 0.1	< 0.01
O=C1c2ccc(F)cc2CN1[C@H]1CCCN(C[C@H]2COc3ccccc3O2)C1 [example 58, 2-((S)-1-(((S)-2,3-Dihydrobenzo[b][1,4]dioxin-2-yl)methyl)piperidin-3-yl)-5-fluoroisoindolin-1-one hydrochloride]	> 10000	> 449	0.299	0.03
CC(C)CN1CC(=O)N([C@H]2CCCN(C[C@H]3COc4ccccc4O3)C2)C1=O [example 107, 3-((S)-1-(((S)-2,3-Dihydrobenzo[b][1,4]dioxin-2-yl)methyl)piperidin-3-yl)-1-isobutylimidazolidine-2,4-dione]	> 10000	> 449	0.284	0.029
CN1CC(=O)N([C@H]2CCCN(C[C@H]3COc4ccccc4O3)C2)C1=O [example 103, 3-((S)-1-(((S)-2,3-Dihydrobenzo[b][1,4]dioxin-2-yl)methyl)piperidin-3-yl)-1-methylimidazolidine-2,4-dione]	> 10000	> 449	3.17	0.32
COc1ccc2c(c1)C(=O)N([C@H]1CCCN(C[C@H]3COc4ccccc4O3)C1)C2 [example 70, 2-((S)-1-(((S)-2,3-Dihydrobenzo[b][1,4]dioxin-2-yl)methyl)piperidin-3-yl)-6-methoxyisoindolin-1-one]	> 10000	> 449	0.905	0.091
O=C1C2C3C=CC(C3)C2C(=O)N1[C@H]1CCCN(C[C@H]2COc3ccccc3O2)C1 (stereo partly drawn) [example 34, 2-((S)-1-(((S)-2,3-Dihydrobenzo[b][1,4]dioxin-2-yl)methyl)piperidin-3-yl)-3a,4,7,7a-tetrahydro-1H-4,7-methanoisoindole-1,3(2H)-dione]	6860	308	0.02	0.002
CC(C)C1CN([C@H]2CCCN(C[C@H]3COc4ccccc4O3)C2)C(=O)O1 (stereo partly drawn) [example 19, 3-((S)-1-(((S)-2,3-Dihydrobenzo[b][1,4]dioxin-2-yl)methyl)piperidin-3-yl)-5-isopropyloxazolidin-2-one]	> 10000	> 449	7.65	0.771
O=C1C(=O)N([C@H]2CCCN(C[C@H]3COc4ccccc4O3)C2)C(=O)N1C1CCCCC1 [example 126, 1-Cyclohexyl-3-((S)-1-(((S)-2,3-dihydrobenzo[b][1,4]dioxin-2-yl)methyl)piperidin-3-yl)imidazolidine-2,4,5-trione]	3890	175	0.01	0.001
CN1C(=O)N([C@H]2CCCN(C[C@H]3COc4ccccc4O3)C2)C(=O)C1(C)C [example 111, 3-((S)-1-(((S)-2,3-Dihydrobenzo[b][1,4]dioxin-2-yl)methyl)-piperidin-3-yl)-1,5,5-trimethylimidazolidine-2,4-dione]	> 10000	> 449	0.87	0.09
Cn1c(=O)n([C@H]2CCCN(C[C@H]3COc4ccccc4O3)C2)c2ccccc21 [example 147, 1-((S)-1-(((S)-2,3-Dihydrobenzo[b][1,4]dioxin-2-yl)methyl)piperidin-3-yl)-3-methyl-1H-benzo[d]imidazol-2(3H)-one]	> 10000	> 449	228	22.9
Cc1nc2c(F)cc(F)cc2n1[C@H]1CCCN(C[C@H]2COc3ccccc3O2)C1 [example 27, 1-((S)-1-(((S)-2,3-Dihydrobenzo[b][1,4]dioxin-2-yl)methyl)piperidin-3-yl)-4,6-difluoro-2-methyl-1H-benzo[d]imidazole]	> 10000	> 449	20.8	2.09
C[C@@]1(c2ccccc2)CCN([C@H]2CCCN(C[C@H]3COc4ccccc4O3)C2)C1=O [example 15, (S)-1-((S)-1-(((S)-2,3-Dihydrobenzo[b][1,4]dioxin-2-yl)methyl)-piperidin-3-yl)-3-methyl-3-phenylpyrrolidin-2-one]	> 10000	> 449	363	36.6

From patent US20190152992A1, “BENZODIOXANE DERIVATIVES AND THEIR PHARMACEUTICAL USE” (Orion Corporation, priority 2016, published 2019)
